These results are taken from ChEMBL document CHEMBL3616443, “Synthesis and biological evaluation of ring A and/or C expansion and opening echinocystic acid derivatives for anti-HCV entry inhibitors” (2015).

The subject of assay [1] is Vesicular stomatitis virus. As to the kind of experiment: Antiviral activity against VSV psuedoparticles infected in human Huh7 cells assessed as inhibition of virus entry at 1 to 5 uM using Bright Glo reagent after 72 hrs by Luciferase reporter gene assay. It counts as functional, organism-based. As to conditions: Huh-7.
Assay [2] has as its system Hepatitis C virus. As to the kind of experiment: Antiviral activity against HCV psuedoparticles infected in human Huh7 cells assessed as inhibition of virus entry at 1 to 5 uM using Bright Glo reagent after 72 hrs by Luciferase reporter gene assay. It counts as functional. For orientation: A reporter such as luciferase makes a cellular process visible.
Assay [3] relates to Hepatitis C virus. As to the kind of experiment: Antiviral activity against HCV psuedoparticles infected in human Huh7 cells assessed as inhibition of virus entry at 10 uM using Bright Glo reagent after 72 hrs by Luciferase reporter gene assay. In kind it is functional, Hepacivirus hominis, Huh-7. Also noted: scale not given: the % may be the effect or the level left.

The structures appear in SMILES notation. Calls of active or inactive are those of the source. The rule behind the calls is not given here.

Turning to `CC1(C)CC[C@]2(C(=O)O)[C@H](O)C[C@]3(C)[C@H](C(=O)C[C@@H]4[C@@]5(C)CCC(=O)OC(C)(C)[C@@H]5CC[C@]43C)[C@@H]2C1`, the outcome in assay [1] was inactive. The outcome in the assay on Hepatitis C virus [2] (Hepacivirus hominis, Huh-7) was Active. Consider `CC1(C)[C@@H](O)CC[C@]2(C)[C@H]3C(=O)C=C4[C@@H]5C[C@@](C)(C(=O)O)CC[C@]5(C)CC[C@@]4(C)[C@]3(C)CC[C@@H]12` [ENOXOLONE], for which the Activity in the assay on Hepatitis C virus [3] is 5%. Consider `CC1(C)CC[C@]2(C(=O)O)[C@H](O)C[C@]3(C)[C@H](OC(=O)C[C@@H]4[C@@]5(C)CC[C@H](O)C(C)(C)[C@@H]5CC[C@]43C)[C@@H]2C1`, for which the outcome in assay [1] was inactive. Also, in the assay with Hepatitis C virus [2] (Hepacivirus hominis, Huh-7), the outcome was Active. Taken in the same sequence, the figures for `CC1(C)CC[C@]2(C(=O)O)[C@H](O)C[C@]3(C)[C@H](C(=O)C[C@@H]4[C@@](C)(CCC(=O)O)[C@H](C(C)(C)O)CC[C@]43C)[C@@H]2C1` were “inactive” and “Active”. As to `C[C@H]1[C@H](C)CC[C@]2(C(=O)O)CC[C@]3(C)C(=CC[C@@H]4[C@@]5(C)CC[C@H](O)C(C)(C)[C@@H]5CC[C@]43C)[C@H]12` [URSOLIC ACID], in the assay on Hepatitis C virus [3], the Activity came to 30%. With `CC1(C)CC[C@]2(C(=O)O)[C@H](O)C[C@]3(C)[C@H](C(=O)OC[C@@H]4[C@@]5(C)CC[C@H](O)C(C)(C)[C@@H]5CC[C@]43C)[C@@H]2C1`, the result in assay [1] was inactive. Also, in the assay with Hepatitis C virus [2] (Hepacivirus hominis, Huh-7), the result was Active. Turning to `COC(=O)[C@]12CCC(C)(C)C[C@H]1[C@H]1C(=O)OC[C@@H]3[C@@]4(C)CC[C@H](O)C(C)(C)[C@@H]4CC[C@@]3(C)[C@]1(C)C[C@H]2O`, in assay [1], the outcome was inactive. Also, the outcome in the assay on Hepatitis C virus [2] (Hepacivirus hominis, Huh-7) was Active. As to `CC1(C)CC[C@]2(C(=O)O)[C@H](O)C[C@]3(C)[C@H](OC(=O)C[C@@H]4[C@@](C)(CCC(=O)O)[C@H](C(C)(C)O)CC[C@]43C)[C@@H]2C1`, the outcome in assay [1] was inactive. The outcome in the assay with Hepatitis C virus [2] (Hepacivirus hominis, Huh-7) was Active. On to `C=C(C)[C@@H]1CC[C@]2(C(=O)O)CC[C@]3(C)[C@H](CC[C@@H]4[C@@]5(C)CC[C@H](O)C(C)(C)[C@@H]5CC[C@]43C)[C@@H]12` [BETULINIC ACID], for which the Activity in the assay with Hepatitis C virus [3] is listed as 75%. `CC1(C)CC[C@]2(C(=O)O)[C@H](O)C[C@]3(C)[C@H](C(=O)C=C4[C@@]5(C)CC[C@H](O)C(C)(C)[C@@H]5CC[C@]43C)[C@@H]2C1`: the result in assay [1] was inactive. Also, the result with Hepatitis C virus [2] (Hepacivirus hominis, Huh-7) was Active. `CC1(C)CC[C@]2(CO)[C@H](O)C[C@@](C)([C@]3(C)CC[C@H]4C(C)(C)[C@@H](O)CC[C@]4(C)C3CCO)C(O)[C@@H]2C1` (stereo not given in full): in assay [1], the outcome was inactive. Also, the outcome in the assay with Hepatitis C virus [2] (Hepacivirus hominis, Huh-7) was Active.

`CC1(C)CC[C@]2(C(=O)O)[C@H](O)C[C@]3(C)[C@H](C(=O)OC[C@@H]4[C@@](C)(CCC(=O)O)[C@H](C(C)(C)O)CC[C@]43C)[C@@H]2C1`: the result in assay [1] was inactive. In addition, the outcome in the assay on Hepatitis C virus [2] (Hepacivirus hominis, Huh-7) was Active.

As to `CC1(C)CC[C@]2(CO)[C@H](O)C[C@]3(C)[C@H](C(O)C[C@@H]4[C@@](C)(CCCO)[C@H](C(C)(C)O)CC[C@]43C)[C@@H]2C1` (stereo not given in full), the result in assay [1] was inactive. Also, the result in the assay with Hepatitis C virus [2] (Hepacivirus hominis, Huh-7) was Active. Consider `CC1(C)CC[C@]2(C(=O)O)[C@H](O)C[C@]3(C)C(=CC[C@@H]4[C@@]5(C)CC[C@H](O)C(C)(C)[C@@H]5CC[C@]43C)[C@H]2C1` [ECHINOCYSTIC ACID], for which the Activity with Hepatitis C virus [2] came out at 90%. Regarding `COC(=O)[C@]12CCC(C)(C)C[C@H]1[C@H]1OC(=O)C[C@@H]3[C@@]4(C)CC[C@H](O)C(C)(C)[C@@H]4CC[C@@]3(C)[C@]1(C)C[C@H]2O`, the outcome in assay [1] was inactive. The result in the assay on Hepatitis C virus [2] (Hepacivirus hominis, Huh-7) was Active. On the same counts, the results for `CC1(C)CC[C@]2(C(=O)O)[C@H](O)C[C@]3(C)[C@H](OC(=O)C[C@@H]4[C@@]5(C)CCC(=O)OC(C)(C)[C@@H]5CC[C@]43C)[C@@H]2C1` are “inactive” and “Active”. Consider `CC1(C)CC[C@]2(C(=O)O)[C@H](O)C[C@]3(C)[C@H](C(=O)OC[C@@H]4[C@@]5(C)CCC(=O)OC(C)(C)[C@@H]5CC[C@]43C)[C@@H]2C1`, for which the result in assay [1] was inactive. Besides, the outcome in the assay on Hepatitis C virus [2] (Hepacivirus hominis, Huh-7) was Active.
